Holding throughout (assay): NCI-60 cell line screen, 48 h
Assay [1] deals with EKVX NSCLC.
In assay [2] the test system is HCT-15 colon.
The test system of assay [3] is K-562 leukemia.
Assay [4] concerns MCF7 breast.
The test system of assay [5] is NCI/ADR-RES ovarian.
The subject of assay [6] is OVCAR-4 ovarian.
In assay [7] the test system is PC-3 prostate.
The test system of assay [8] is T-47D breast.
Assay [9] has as its system DMS 114 small cell lung.
The subject of assay [10] is HCT-116 colon.
For assay [11], the system named is KM20L2 colon.
Assay [12] concerns M19-MEL melanoma.
Assay [13] concerns BT-549 breast.
Assay [14] deals with 786-0 renal.
For assay [15], the system named is DMS 273 small cell lung.

Among the data in PubChem BioAssay (NCI) are TGI and GI50 values, retold here.

SMILES strings stand for the structures. “And” between values parts separate entries of the source, which are not always exact repeats. Equal values may be shown once.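 Protocol summary: plate cells (96-well), add compound at 5 concentrations, incubate 48 h, interpolate endpoints linearly. The concentration for 50% growth inhibition is given as GI50. TGI marks complete inhibition of growth.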

For the compound `CCOC(=O)c1csc(NC(=O)CN2CCCCC2)n1`, the TGI in [1], in [2], in [3], in assay [4], in assay [5] and in assay [6] was more than 100 µM throughout. Moreover, the TGI in assay [7] and in assay [8] was more than 100 µM each time.
With `CC(C)OP(=O)(OC(C)C)c1nn(-c2ccc([N+](=O)[O-])cc2)c(=N)s1`, the TGI in [9], in assay [1], in assay [10], in assay [2], in assay [3] and in assay [11] was more than 100 µM each time. The TGI in assay [12] and in assay [6] was more than 100 µM throughout.
With `O=c1cnn(C/C=C/CP(=O)(O)O)c(=O)[nH]1`, the TGI in assay [13], in assay [1], in assay [2], in assay [3], in assay [4] and in assay [5] was more than 100 µM in each case. Further, the TGI in assay [7] and in assay [8] was more than 100 µM in each case.
`CC1=CC(=C(c2ccc(N)c(C)c2)c2ccc(N)c(C)c2)C=CC1=N`: the TGI in assay [14] was 21.1 µM; in [9] it was 9.96 µM; in [15] it was 10.8 µM; in [1], 45.8 µM; in assay [10] it was 13.3 µM; in assay [2], more than 61.4 µM. Moreover, the TGI in assay [3] amounted to 22.5 µM; in [11], 14.5 µM; in [12], 14.7 µM; in assay [6] it was 52.8 µM.
As to `O=S(=O)(O)c1cc(S(=O)(=O)O)c2c(N=Nc3ccccc3)c(O)ccc2c1`, the TGI in assay [14], in [13], in assay [10], in assay [2], in assay [3] and in assay [5] was more than 100 µM in each case. Further, the TGI in [6], in assay [7] and in assay [8] was more than 100 µM each time.
For `COC(=O)C1C(O)C(C)C(O)C(C)/C=C\C=C(C)C(=O)Nc2c(C)c(OC(C)=O)c3c(c2O)C(=O)C(C)=C2OCOC(=C23)C(C)=CC(C)(O)C(O)C(C)C1O` (centres undefined), the TGI in assay [14] was more than 100 µM; in assay [13] it was more than 100 µM; in [9], 52.6 µM; in assay [15], more than 75 µM; in [1], 73.7 µM and > 100 µM; in [10], 49.6 µM and > 100 µM. The TGI is 50.8 µM and > 100 µM in assay [2]; more than 100 µM in assay [3]; more than 72.8 µM in assay [11]; 51.1 µM and > 100 µM in [4]; more than 100 µM in [5]; more than 100 µM in assay [6]. Also, the TGI in assay [7] and in assay [8] was more than 100 µM throughout. The GI50 in [1] is 48 µM and > 100 µM; in assay [10], 20.3 µM; in assay [2] it was 19.4 µM and > 100 µM; in [3], 28.3 µM and > 100 µM; in assay [6], > 66.3 µM and 14.6 µM.
Consider `O=S(=O)(O)c1cccc2ccc(O)c(N=Nc3ccc(S(=O)(=O)c4ccc(N=Nc5c(O)ccc6cccc(S(=O)(=O)O)c56)cc4)cc3)c12`, for which the TGI in [14], in assay [13], in assay [1], in assay [10], in [2] and in [3] was more than 100 µM in each case. In addition, the TGI in [5], in [6], in [7] and in assay [8] was more than 100 µM throughout.
Turning to `COC1C(=[N+]=[N-])C(=O)NC(=O)N1C1OC(COC(c2ccccc2)(c2ccccc2)c2ccccc2)C(O)C1O` (centres undefined), the TGI came out at 35.9 µM in assay [1]; 34.9 µM in assay [10]; 36.8 µM in assay [2]; 49.4 µM in assay [3]; 31.1 µM in assay [11]; 39.5 µM in [12]. This compound displayed a TGI in assay [6] of 27.8 µM.
Take `COc1cccc2c1C(=O)c1c(O)c3c(c(O)c1C2=O)CC(O)(C(C)=O)CC3OC1CC([N+](C)(C)C)C(O)C(C)O1` (centres undefined): the TGI in [14], in assay [9], in assay [15], in [1], in [10] and in assay [2] was more than 100 µM throughout. Besides, the TGI in [3], in assay [11], in assay [12] and in assay [6] was more than 100 µM throughout.
